Assay results published in ChEMBL document CHEMBL1147922, “Tetrahydroindazole inhibitors of bacterial type II topoisomerases. Part 2: SAR development and potency against multidrug-resistant strains” (Bioorg Med Chem Lett, 2007).
In brackets after ≈: the same amount, converted by molar mass.

Assays:
Staphylococcus aureus [1] = test: Antibacterial activity against Staphylococcus aureus ATCC 13709; format: functional
Staphylococcus aureus [2] = test: Antibacterial activity against ciprofloxacin resistant methicillin resistant Staphylococcus aureus OC4159; format: functional
Streptococcus pneumoniae = test: Antibacterial activity against Streptococcus pneumoniae ATCC 49619; format: functional
Staphylococcus aureus [3] = test: Antibacterial activity against ciprofloxacin resistant methicillin resistant Staphylococcus aureus OC5273; format: functional
Escherichia coli = test: Antibacterial activity against Escherichia coli KL16; format: functional
Staphylococcus aureus [4] = test: Antibacterial activity against ciprofloxacin resistant methicillin resistant Staphylococcus aureus OC4222; format: functional
Staphylococcus aureus [5] = test: Antibacterial activity against quinolone susceptible methicillin resistant Staphylococcus aureus OC2878; format: functional
[6] = Inhibition of bacterial DNA topoisomerase 4
Staphylococcus aureus [7] = test: Antibacterial activity against ciprofloxacin resistant methicillin resistant Staphylococcus aureus OC3946; format: functional
[8] = Inhibition of bacterial DNA gyrase

Compound | MIC (Staphylococcus aureus [1]) [µg/mL] | MIC (Staphylococcus aureus [2]) [µg/mL] | MIC (Streptococcus pneumoniae) [µg/mL] | MIC (Staphylococcus aureus [3]) [µg/mL] | MIC (Escherichia coli) [µg/mL] | MIC (Staphylococcus aureus [4]) [µg/mL] | MIC (Staphylococcus aureus [5]) [µg/mL] | IC50 [6] [µg/mL] | MIC (Staphylococcus aureus [7]) [µg/mL] | IC50 [8] [µg/mL]
COc1ccc2nccc(-n3cc4c(n3)CCC(NC(=O)c3ccc5c(c3)NC(=O)CS5)C4)c2c1 (stereo not given) | 0.25 (≈ 0.515 µM) | 0.031 (≈ 0.0638 µM) | 2 (≈ 4.12 µM) | 0.25 (≈ 0.515 µM) | 4 (≈ 8.24 µM) | 0.062 (≈ 0.128 µM) | 0.125 (≈ 0.257 µM) | 0.125 (≈ 0.257 µM) | 0.015 (≈ 0.0309 µM) | 0.12 (≈ 0.247 µM)
COc1ccc2nccc(-n3cc4c(n3)CCC(NC(=O)c3ccc5c(c3)NC(=O)CS5)C4)c2n1 (stereo not given) | 0.06 (≈ 0.123 µM) | 0.5 (≈ 1.03 µM) | 4 (≈ 8.22 µM) | 0.062 (≈ 0.127 µM) | > 128 | 0.5 (≈ 1.03 µM) | 0.031 (≈ 0.0637 µM) | 0.25 (≈ 0.514 µM) | 0.007 (≈ 0.0144 µM) | 0.25 (≈ 0.514 µM)
O=C1CSc2ccc(C(=O)NC3CCc4nn(-c5cccc6cccnc56)cc4C3)cc2N1 (stereo not given) | 0.25 (≈ 0.549 µM) | 4 (≈ 8.78 µM) | 4 (≈ 8.78 µM) | 0.5 (≈ 1.1 µM) | 16 (≈ 35.1 µM) | 4 (≈ 8.78 µM) | 0.25 (≈ 0.549 µM) | 0.125 (≈ 0.274 µM) | 0.125 (≈ 0.274 µM) | 2 (≈ 4.39 µM)
COc1ccc2nccc(-n3cc4c(n3)CCC(NCc3ccc5c(c3)OCCO5)C4)c2c1 (stereo not given) | 0.5 (≈ 1.13 µM) | 16 (≈ 36.2 µM) | 1 (≈ 2.26 µM) | 1 (≈ 2.26 µM) | 128 (≈ 289 µM) | 16 (≈ 36.2 µM) | 0.5 (≈ 1.13 µM) | 0.06 (≈ 0.136 µM) | 0.5 (≈ 1.13 µM) | 2 (≈ 4.52 µM)
